Assay results: patent publication US20050031581A1, “Termite feeding stimulant and method for using same” (priority 2001, published 2005)

Assays:
termites [1] = conditions: ambient atmosphere; cited from earlier work
[2] = tested on: Coptotermes formosanus Shiraki; conditions: in vivo; cited from earlier work
termites [3] = conditions: extended feeding tests, e.g. greater than 30 days; cited from earlier work
Mastotermes darviniensis = conditions: in vivo; cited from earlier work
Coptotermes lacteus = conditions: in vivo; cited from earlier work
termites [4] = conditions: limited by volatility of the compound; cited from earlier work
termites [5] = assay: Feeding on bait matrix with chitin synthesis inhibitor added; type: in vivo; conditions: added to the bait matrix of the bioassays
Experimental: Note that Chitin synthesis inhibitors, such as hexaflumuron, were added to the bait matrix described in the bioassays above resulting in less feeding on the bait matrix treated with hexaflumuron compared to its control. […] Accordingly, it is believed that adding sitosterol to such a bait matrix may provide a way to overcome the termites' aversion to hexaflumuron.

Coptotermes formosanus = assay: Cellulose TLC plate feeding bioassay; type: in vivo; conditions: 2.23, 7.45 and 22.34 ugm sitosterol/mg cellulose, FIG. 4
Experimental: (§1) Termite workers (100 total) were removed from their storage tubs and placed in a smaller plastic Rubbermaid® tub (having a volume of 414 ml) that contained soil (with a 20% by weight moisture). These termites were allowed to acclimate to their new surroundings for 24 hours before the feeding bioassay began. Solutions of sitosterol in acetone (of 1.0 ugm/ul, […], or 10 ugm/ul, respectively) were applied to three different cellulose squares with a Hamilton syringe (of 100 micro-liters (ul) capacity), wherein the squares were provided on a single thin-layer chromatography (TLC) glass plate. For the three cellulose squares, each single cellulose square (of 13.43 mg of cellulose) was evenly wetted with 30 ul of only one of the solutions. Thus, a dose of one of 30 ugm, 100 ugm or 300 ugm of sitosterol was applied, respectively, to a corresponding one of the cellulose squares. Accordingly, the concentrations on these three cellulose squares were, respectively, 2.23 ugm sitosterol/mg cellulose (equivalently, […] sitosterol to cellulose), 7.45 ugm sitosterol/milligram (mg) cellulose (equivalently, 0.745% sitosterol to cellulose), and 22.34 ugm sitosterol/mg cellulose (equivalently, 2.23% sitosterol to cellulose). Note that a fourth cellulose square was treated with 30 ul of acetone as a control. […]

[6] = Physical properties of sitosterol; type: physicochemical
Excerpt: (§2) Several aspects of sitosterol make it a promising compound for enhancing Coptotermes formosanus, and Reticulitermes tibialis control. […] Termite baits are most frequently placed in the soil where moisture conditions are a factor; i.e., soil having at least 20% moisture, and/or occasionally saturated with water. […] Sitosterol has little toxic risk, and it has been tested in humans as an alternative method to lower plasma cholesterol levels. Sitosterol is an economically rational additive to a termite bait system. For example, the cost of the sitosterol needed to treat one termite bait roll of the size and proportion of paper (e.g., 10 cm by 100 cm) is about one cent to reach the concentration of our highest tested dose (300 ugm).

termites [7] = assay: Toxic effects of sitosterol to termites; conditions: in vivo
Excerpt: as §2

Reticulitermes tibialis [8] = assay: Field test of sitosterol cellulose pellets in underground termite jar traps; type: in vivo; conditions: pellet 1% sitosterol and 99% cellulose, 15 jar traps in the field, FIG. 1
Experimental: Sitosterol was tested in the field as a feeding stimulant for Reticulitermes tibialis. Sitosterol (300 mg) was dissolved in 30 ml of acetone and added to 30 gm of cellulose powder (from Bio-Serv Inc., Frenchtown, N.J.), and the combination was dried overnight. A hydraulic press (providing 15,000 pounds per square inch force) was used to make hard pellets (wherein each pellet was approximately 3 gm, 2.5 cm diameter, 5 mm thickness, having 1% sitosterol and 99% cellulose). Control pellets of cellulose powder alone (3 gm) were made similarly.
The pellets were tested in underground termite traps made from Nalgene jars (having dimensions of approximately 10 cm diameter, 10 cm height) with 3 mm holes drilled at 3 cm intervals to allow termites to enter each jar. The jar traps were filled with soil (20% moisture). Two pellets were placed on the surface of the soil both within and at the top of each jar trap, one pellet containing cellulose (3 gm) plus sitosterol […] and the other pellet containing only cellulose (3 gm).
One of the jar traps containing a 1% sitosterol pellet and a cellulose control pellet was placed at the base of a fence post that was previously determined to be infested with termites. The traps were checked once a week for feeding. When termite feeding was apparent, both pellets were removed and weighed to determine the amount of each pellet that had been eaten. […]

Reticulitermes tibialis [9] = assay: Paper feeding bioassay; type: in vivo; conditions: 0.60, 2.00 and 5.99 ugm sitosterol/mg paper bait substrate; 100 termites, FIG. 3
Experimental: The termites in the tub were allowed to acclimate to their new surroundings for 24 hours before the present feeding bioassay began. Each of three rectangular bait matrixes (each matrix being approximately 100 mg of bait substrate, the substrate being paper) was divided in two halves with a pencil line, each half having a 50.06 mg bait substrate upon which the termites were to feed. For each bait matrix, one half (the “experimental” half) was provided with a given sitosterol dose, and the other half was provided as a control, and accordingly had no sitosterol applied thereto. In particular, for each bait matrix, exactly one of three solutions of sitosterol in acetone (each solution having one of the concentrations: 1 ugm/ul, […], or 10 ugm/ul) was applied to the “experimental” half of the bait matrix with a Hamilton syringe (of 100 ul capacity), and only acetone was applied to the other (control) half as a control. More precisely, the experimental half of each bait matrix rectangle was evenly wetted with 30 ul of a different one of the solutions of sitosterol, thus applying on the experimental bait matrix half of each bait matrix a dose of only one of 30 ugm, 100 ugm or 300 ugm of sitosterol. The sitosterol concentrations tested were therefore 0.60, 2.00, and 5.99 ugm sitosterol/mg of bait substrate. […]

Reticulitermes tibialis [10] = assay: Cellulose TLC plate feeding bioassay; type: in vivo; conditions: every dose tested: 30, 100 and 300 ugm per cellulose square; 100 termites, up to 7 days, FIG. 2
Experimental: Such behavioral feeding bioassays were conducted using the following protocol.
as §1

O=C=O [CO2, carbon dioxide]
CO2 concentration attractive to termites (termites [1]): at least 0.2 % by volume

N[C@H](CC(=O)O)C(=O)O [D-aspartic acid]
feeding compared with a water control [2]: fed upon more than a water control | toxicity to termites (termites [3]): has shown toxicity to termites

Oc1ccc(O)cc1 [Hydroquinone]
feeding stimulation (Mastotermes darviniensis): stimulated feeding | feeding stimulation (Coptotermes lacteus): stimulated feeding | duration of phagostimulatory effects (termites [4]): one month

N[C@@H](CCC(=O)O)C(=O)O [L-glutamic acid]
feeding compared with a water control [2]: fed upon more than a water control

O=C(NC(=O)c1c(F)cccc1F)Nc1cc(Cl)c(OC(F)(F)C(F)F)c(Cl)c1 [hexaflumuron]
feeding on treated bait matrix compared to its control (termites [5]): less feeding

CC[C@H](CC[C@@H](C)[C@H]1CC[C@H]2[C@@H]3CC=C4C[C@@H](O)CC[C@]4(C)[C@H]3CC[C@]12C)C(C)C [sitosterol]
feeding on cellulose squares having sitosterol versus control square (Coptotermes formosanus): ate substantially more | stability and volatility [6]: stable, nonvolatile | hydrophobicity ([6]; soil moisture/water): hydrophobic compound which resists being washed off | toxic effects to termites (termites [7]): no toxic effects | amount of pellet eaten by the termites versus cellulose control pellet (Reticulitermes tibialis [8]): more than twice as much | area of bait matrix half consumed versus control side (Reticulitermes tibialis [9]): consumed substantially more than the control side | feeding on cellulose treated with sitosterol versus control square (Reticulitermes tibialis [10]): fed significantly more
